# Assay results as given in patent US12103926B2, “Compounds for treating huntington's disease” (PTC THERAPEUTICS, INC., priority 2018, dated 2024).
# Tested on: Endogenous Huntingtin Protein
# Test: Endogenous Huntingtin Protein Assay (ELISA-based MSD electrochemiluminescence assay)
# Assay type: cell-based
# Conditions: MW1 (expanded polyglutamine) or MAB2166 capture antibody; lysates
# Protocol: Compounds of Formula (I) were tested using the Meso Scale Discovery (MSD) Assay provided in International Application No. PCT/US2016/066042, filed on Dec. 11, 2016 and claiming priority to United States Provisional Application U.S. 62/265,652 filed on Dec. 10, 2015, the entire contents of which are incorporated herein by reference.
# The Endogenous Huntingtin Protein assay used in Example 1 was developed using the ELISA-based MSD electrochemiluminescence assay platform.
# Endogenous Huntingtin Protein Assay
# Meso Scale Discovery (MSD) 96-well or 384-well plates were coated overnight at 4° C. with MW1 (expanded polyglutamine) or MAB2166 monoclonal antibody (for capture) at a concentration of 1 μg/mL in PBS (30 μL per well). Plates were then washed three times with 300 μL wash buffer (0.05% Tween-20 in PBS) and blocked (100 μL blocking buffer; 5% BSA in PBS) for 4-5 hours at room temperature with rotational shaking and then washed three times with wash buffer.
# Samples (25 μL) were transferred to the antibody-coated MSD plate and incubated overnight at 4° C. After removal of the lysates, the plate was washed three times with wash buffer, and 25 μL of #5656S (Cell signaling; rabbit monoclonal) secondary antibody (diluted to 0.25 μg/mL in 0.05% Tween-20 in blocking buffer) was added to each well and incubated with shaking for 1 Hour at room temperature. Following incubation with the secondary antibody, the wells were rinsed with wash buffer after which 25 μL of goat anti-rabbit SULFO TAG secondary detection antibody (required aspect of the MSD system) (diluted to 0.25 μg/mL in 0.05% Tween-20 in blocking buffer) was added to each well and incubated with shaking for 1 hour at room temperature. After rinsing three times with wash buffer, 150 μL of read buffer T with surfactant (MSD) were added to each empty well, and the plate was imaged on a SI 6000 imager (MSD) according to manufacturers' instructions provided for 96- or 384-well plates.
row,IC50,SMILES
1,500 to 1000 nM,"Cn1ccc(-c2ccc(-c3cnc(NC4CC(C)(C)NC(C)(C)C4)cn3)c(O)c2)n1 [Cpd 55, 5-(1-methyl-1H-pyrazol-3-yl)-2-{5-[(2,2,6,6-tetramethylpiperidin-4-yl)amino]pyrazin-2-yl}phenol]"
2,100 to 500 nM,"CC(C)(C)NC1CCN(c2cnc(-c3ccc(-c4cn[nH]c4)c(F)c3F)cn2)C1 (stereo not shown) [Cpd 63, N-tert-butyl-1-{5-[2,3-difluoro-4-(1H-pyrazol-4-yl)phenyl]pyrazin-2-yl}pyrrolidin-3-amine]"
3,1000 to 3000 nM,"Oc1cc(-c2cn[nH]c2)ccc1-c1cnc(OC2CCNCC2)cn1 [Cpd 7, 2-{5-[(piperidin-4-yl)oxy]pyrazin-2-yl}-5-(1H-pyrazol-4-yl)phenol]"
4,< 100 nM,"CC(C)(C)NC1CCN(c2cnc(-c3cc(F)c(-c4cn[nH]c4)cc3F)cn2)C1 (stereo not shown) [Cpd 64, N-tert-butyl-1-{5-[2,5-difluoro-4-(1H-pyrazol-4-yl)phenyl]pyrazin-2-yl}pyrrolidin-3-amine]"
5,1000 to 3000 nM,"Oc1cc(-c2cn[nH]c2)ccc1-c1cnc(NC2CCNCC2)cn1 [Cpd 8, 2-{5-[(piperidin-4-yl)amino]pyrazin-2-yl}-5-(1H-pyrazol-4-yl)phenol]"
6,3000 to 9000 nM,"CC1(C)CC(Nc2cnc(-c3ccc(-c4ccccn4)cc3O)cn2)CC(C)(C)N1 [Cpd 48, 5-(pyridin-2-yl)-2-{5-[(2,2,6,6-tetramethylpiperidin-4-yl)amino]pyrazin-2-yl}phenol]"
7,< 100 nM,"COc1cc(-c2ccc(-c3cnc(NC4CC(C)(C)NC(C)(C)C4)cn3)c(O)c2)ncn1 [Cpd 49, 5-(6-methoxypyrimidin-4-yl)-2-{5-[(2,2,6,6-tetramethylpiperidin-4-yl)amino]pyrazin-2-yl}phenol]"
8,< 100 nM,"CC1(C)CC(Nc2cnc(-c3ccc(-c4ccc5nccn5n4)cc3O)cn2)CC(C)(C)N1 [Cpd 56, 5-(imidazo[1,2-b]pyridazin-6-yl)-2-{5-[(2,2,6,6-tetramethylpiperidin-4-yl)amino]pyrazin-2-yl}phenol]"
9,< 100 nM,"Cn1cc(-c2ccc(-c3cnc(NC4CC(C)(C)NC(C)(C)C4)cn3)c(O)c2)cn1 [Cpd 54, 5-(1-methyl-1H-pyrazol-4-yl)-2-{5-[(2,2,6,6-tetramethylpiperidin-4-yl)amino]pyrazin-2-yl}phenol]"
10,100 to 500 nM,"CC1(C)CC(Nc2cnc(-c3ccc(-c4ccncc4)cc3O)cn2)CC(C)(C)N1 [Cpd 44, 5-(pyridin-4-yl)-2-{5-[(2,2,6,6-tetramethylpiperidin-4-yl)amino]pyrazin-2-yl} phenol]"
11,500 to 1000 nM,"CC1(C)CC(Oc2cnc(-c3ccc(-c4cn[nH]c4)cc3O)cn2)CC(C)(C)N1 [Cpd 2, 5-(1H-pyrazol-4-yl)-2-{5-[(2,2,6,6-tetramethylpiperidin-4-yl)oxy]pyrazin-2-yl}phenol]"
12,1000 to 3000 nM,"Oc1cc(-c2cn[nH]c2)ccc1-c1cnc(N2CC3(CCNC3)C2)cn1 [Cpd 21, 2-[5-(2,6-diazaspiro[3.4]octan-2-yl)pyrazin-2-yl]-5-(1H-pyrazol-4-yl)phenol]"
13,1000 to 3000 nM,"CC1(C)CC(Oc2cnc(-c3ccc(-c4cn[nH]c4)c(F)c3F)cn2)CC(C)(C)N1 [Cpd 10, 2-[2,3-difluoro-4-(1H-pyrazol-4-yl)phenyl]-5-[(2,2,6,6-tetramethylpiperidin-4-yl)oxy]pyrazine]"
14,1000 to 3000 nM,"CC1(C)CC(Nc2cnc(-c3ccc(-c4ncccn4)cc3O)cn2)CC(C)(C)N1 [Cpd 47, 5-(pyrimidin-2-yl)-2-{5-[(2,2,6,6-tetramethylpiperidin-4-yl)amino]pyrazin-2-yl} phenol]"
15,1000 to 3000 nM,"Oc1cc(-c2cn[nH]c2)ccc1-c1cnc(N2CC3CNCC3C2)cn1 (stereo not shown) [Cpd 6, 2-[5-(hexahydropyrrolo[3,4-c]pyrrol-2(1H)-yl)pyrazin-2-yl]-5-(1H-pyrazol-4-yl)phenol]"
16,500 to 1000 nM,"CC1(C)CC(Nc2cnc(-c3ccc(-n4nccn4)cc3O)cn2)CC(C)(C)N1 [Cpd 51, 2-{5-[(2,2,6,6-tetramethylpiperidin-4-yl)amino]pyrazin-2-yl}-5-(2H-1,2,3-triazol-2-yl)phenol]"
17,< 100 nM,"CC(C)(C)NC1CCN(c2cnc(-c3ccc(-c4c[nH]nc4F)cc3O)cn2)C1 (stereo not shown) [Cpd 65, 2-{5-[3-(tert-butylamino)pyrrolidin-1-yl]pyrazin-2-yl}-5-(3-fluoro-1H-pyrazol-4-yl)phenol]"
18,< 100 nM,"Cn1cc(-c2ccc(-c3cnc(N4CCC(NC(C)(C)C)C4)cn3)c(O)c2)cn1 (stereo not shown) [Cpd 62, 2-{5-[3-(tert-butylamino)pyrrolidin-1-yl]pyrazin-2-yl}-5-(1-methyl-1H-pyrazol-4-yl)phenol]"

row,SMILES,IC50
1,"Oc1cc(-c2cn[nH]c2)ccc1-c1cnc(OC2CC3CCC(C2)N3)cn1 (stereo not shown) [Cpd 25, 2-[5-(8-azabicyclo[3.2.1]oct-3-yloxy)pyrazin-2-yl]-5-(1H-pyrazol-4-yl)phenol]",3000 to 9000 nM
2,"CN(c1cnc(-c2ccc(-c3cn[nH]c3)c(F)c2)cn1)C1CC(C)(C)NC(C)(C)C1 [Cpd 16, 5-[3-fluoro-4-(1H-pyrazol-4-yl)phenyl]-N-methyl-N-(2,2,6,6-tetramethylpiperidin-4-yl)pyrazin-2-amine]",500 to 1000 nM
3,"CN(c1cnc(-c2cc(F)c(-c3cn[nH]c3)cc2O)cn1)C1CC(C)(C)NC(C)(C)C1 [Cpd 22, 4-fluoro-2-{5-[methyl(2,2,6,6-tetramethylpiperidin-4-yl)amino]pyrazin-2-yl}-5-(1H-pyrazol-4-yl)phenol]",< 100 nM
4,"CN(c1cnc(-c2ccc(-c3cn[nH]c3)cc2O)cn1)C1CC(C)(C)NC(C)(C)C1 [Cpd 26, 2-{5-[methyl(2,2,6,6-tetramethylpiperidin-4-yl)amino]pyrazin-2-yl}-5-(1H-pyrazol-4-yl)phenol]",< 100 nM
5,"[2H]C([2H])([2H])n1cc(-c2ccc(-c3cnc(N(C)C4CC(C)(C)NC(C)(C)C4)cn3)c(O)c2)cn1 [Cpd 28, 5-[1-(^2H3)methyl-1H-pyrazo1-4-yl]-2-{5-[methyl(2,2,6,6-tetramethylpiperidin-4-yl)amino]pyrazin-2-yl}phenol]",500 to 1000 nM
6,"CN(c1cnc(-c2cc(C#N)c(-c3cn[nH]c3)cc2F)cn1)C1CC(C)(C)NC(C)(C)C1 [Cpd 24, 4-fluoro-5-{5-[methyl(2,2,6,6-tetramethylpiperidin-4-yl)amino]pyrazin-2-yl}-2-(1H-pyrazol-4-yl)benzonitrile]",< 100 nM
7,"CN(c1cnc(-c2ccc(-n3nccn3)cc2O)cn1)C1CC(C)(C)NC(C)(C)C1 [Cpd 61, 2-{5-[methyl(2,2,6,6-tetramethylpiperidin-4-yl)amino]pyrazin-2-yl}-5-(2H-1,2,3-triazol-2-yl)phenol]",100 to 500 nM
8,"Cc1ncn(-c2cc(F)c(-c3cnc(N(C)C4CC(C)(C)NC(C)(C)C4)cn3)cc2F)n1 [Cpd 42, 5-[2,5-difluoro-4-(3-methyl-1H-1,2,4-triazol-1-yl)phenyl]-N-methyl-N-(2,2,6,6-tetramethylpiperidin-4-yl)pyrazin-2-amine]",100 to 500 nM
9,"CN(c1cnc(-c2ccc(-n3ccnc3)cc2O)cn1)C1CC(C)(C)NC(C)(C)C1 [Cpd 5, 5-(1H-imidazol-1-yl)-2-{5-[methyl(2,2,6,6-tetramethylpiperidin-4-yl)amino]pyrazin-2-yl}phenol]",500 to 1000 nM
10,"CN(c1cnc(-c2ccc(-c3cn[nH]c3)cc2O)cn1)C1CCNCC1 [Cpd 20, 2-{5-[methyl(piperidin-4-yl)amino]pyrazin-2-yl}-5-(1H-pyrazol-4-yl)phenol]",500 to 1000 nM
11,"Cc1[nH]ncc1-c1ccc(-c2cnc(N(C)C3CC(C)(C)NC(C)(C)C3)cn2)c(O)c1 [Cpd 12, 5-(5-methyl-1H-pyrazol-4-yl)-2-{5-[methyl(2,2,6,6-tetramethylpiperidin-4-yl)amino]pyrazin-2-yl}phenol]",500 to 1000 nM
12,"CN(c1cnc(-c2ccc(-c3cn[nH]c3)cc2O)cn1)C1CC2(CCCCC2)NC2(CCCCC2)C1 (stereo not shown) [Cpd 3, 2-{5-[(7-azadispiro[5.1.5^8.3^6]hexadecan-15-yl)(methyl)amino]pyrazin-2-yl}-5-(1H-pyrazol-4-yl)phenol]",1000 to 3000 nM
13,"CN(c1cnc(-c2ccc(-c3c[nH]nc3F)cc2O)cn1)C1CC(C)(C)NC(C)(C)C1 [Cpd 43, 5-(3-fluoro-1H-pyrazol-4-yl)-2-{5-[methyl(2,2,6,6-tetramethylpiperidin-4-yl)amino]pyrazin-2-yl}phenol]",100 to 500 nM
14,"Cc1cn(-c2ccc(-c3cnc(N(C)C4CC(C)(C)NC(C)(C)C4)cn3)c(F)c2F)cn1 [Cpd 41, 5-[2,3-difluoro-4-(4-methyl-1H-imidazol-1-yl)phenyl]-N-methyl-N-(2,2,6,6-tetramethylpiperidin-4-yl)pyrazin-2-amine]",500 to 1000 nM
15,"CN(c1cnc(-c2cc(Cl)c(-c3cn[nH]c3)cc2Cl)cn1)C1CC(C)(C)NC(C)(C)C1 [Cpd 4, 5-[2,5-dichloro-4-(1H-pyrazol-4-yl)phenyl]-N-methyl-N-(2,2,6,6-tetramethylpiperidin-4-yl)pyrazin-2-amine]",1000 to 3000 nM
16,"CN(c1cnc(-c2cc(F)c(-c3cn[nH]c3)c(F)c2)cn1)C1CC(C)(C)NC(C)(C)C1 [Cpd 17, 5-[3,5-difluoro-4-(1H-pyrazol-4-yl)phenyl]-N-methyl-N-(2,2,6,6-tetramethylpiperidin-4-yl)pyrazin-2-amine]",100 to 500 nM
